# Test results from patent publication US20240067693A1, “POLYPEPTIDES AND USES THEREOF” (MEDIMMUNE LIMITED, priority 2020, published 2024).
# Numbered stars: 1 amine (or outer) side, 2 acyl side, 3 side chain; on linkers, the order of the positions; unused ones are H or OH. Bridge positions count the residues as written; N and C are the ends. Square brackets hold non-standard residues; d marks the D form. Side chains are listed from the residue outwards. Peptide text beside a SMILES is read from it. * marks the point of attachment. C18 diacid = O=C(O)CCCCCCCCCCCCCCCCC(=O)*; γGlu = O=C(O)[C@H](CCC(=O)[*:2])N[*:1]; αMeF = C[C@](N)(Cc1ccccc1)C(=O)O; Aib = CC(C)(N)C(=O)O
# Experiments:
# [1] = Thioflavin T fibrillation assay; assay type: physicochemical; conditions: ThT fibrillation assay; peptide 1 mg/mL in 25 mM sodium acetate buffer pH 4.0; 6 days at 37 °C with shaking; >144 h = no increase
# In short: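 Peptides at 1 mg/mL in 25 mM sodium acetate pH 4.0 with ThT (from 0.25 mM stock), incubated 6 days at 37 °C with intermittent orbital shaking at 500–750 rpm. Fluorescence (ex 444/em 480 nm) read every 30 min; value is average time to a rise in baseline-corrected signal.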
# [2] = biological target: T1, human calcitonin receptor (hCTR) (Homo sapiens, UniProt P30988); experiment: cAMP production in 1321N1 cells with stable recombinant expression of human calcitonin receptor (hCTR); assay type: cell-based; conditions: cAMP, 1321N1 cells, assay buffer with 0.1% BSA; read-out: EC50 (pM) hCTR
# T1 construct: expressed in transfected cells
# T1 sequence (P30988 25-474): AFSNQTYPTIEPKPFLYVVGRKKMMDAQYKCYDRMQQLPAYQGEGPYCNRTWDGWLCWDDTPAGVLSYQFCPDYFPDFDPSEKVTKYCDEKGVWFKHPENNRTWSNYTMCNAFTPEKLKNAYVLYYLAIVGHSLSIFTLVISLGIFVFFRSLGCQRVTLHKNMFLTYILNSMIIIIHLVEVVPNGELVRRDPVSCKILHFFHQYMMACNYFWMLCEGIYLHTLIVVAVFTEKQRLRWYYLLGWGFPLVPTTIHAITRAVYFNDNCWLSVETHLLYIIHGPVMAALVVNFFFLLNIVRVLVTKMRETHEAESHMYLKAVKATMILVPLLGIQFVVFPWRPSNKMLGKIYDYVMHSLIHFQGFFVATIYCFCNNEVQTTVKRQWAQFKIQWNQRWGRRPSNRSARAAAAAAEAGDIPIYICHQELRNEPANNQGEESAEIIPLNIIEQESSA
# In short: (§1)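 EC50 values come from 4-parameter logistic fits of HTRF cAMP signal, normalised to maximal calcitonin or amylin effect. Peptides were tested in duplicate for 30 min at RT in IBMX-containing (0.5 mM) BSA/HEPES buffer pH 7.4 on stable 1321N1 (human CTR, AMYR3) or HEK (rat CTR, AMYR3) lines.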
# [3] = biological target: T2, human amylin receptor (calcitonin receptor co-expressed with receptor activity modifying protein, RAMP3) (hAMYR3) (Homo sapiens, UniProt O60896+P30988); experiment: cAMP production in 1321N1 cells with stable recombinant expression of human amylin receptor (hAMYR3); assay type: cell-based; conditions: for Ratio (selectivity hAMYR vs hCTR, ratio of EC50 values at the two receptors): EC50 hCTR / EC50 hAMYR3; for EC50: cAMP, 1321N1 cells, assay buffer with 0.1% BSA, read-out: EC50 (pM) hAMYR3
# T2 construct: expressed in transfected cells
# T2 sequence (P30988 25-474): T1 sequence (P30988 25-474)
# T2 sequence (O60896 24-148 partner): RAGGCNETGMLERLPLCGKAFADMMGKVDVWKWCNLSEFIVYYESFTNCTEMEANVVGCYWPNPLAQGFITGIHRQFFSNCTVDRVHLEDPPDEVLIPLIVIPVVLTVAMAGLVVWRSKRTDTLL
# In short: as §1
# [4] = system: lean rats; experiment: Rat acute food intake study; assay type: in vivo; conditions: lean male Sprague Dawley rats, 20 nmol/kg subcutaneously
# In short: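 Male Sprague Dawley rats (n=7/group), fasted 6 h, received 20 nmol/kg test compound or 60 nmol/kg pramlintide subcutaneously 30 min before food return at dark onset. Food intake recorded automatically in home cages over 3 days, binned hourly and analysed as cumulative dark-period intake; body weight taken daily.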
Time taken to detect increase in fluorescence intensity [1] [h],EC50 [2] [pM],"Ratio (selectivity hAMYR vs hCTR, ratio of EC50 values at the two receptors) [3]",EC50 [3] [pM],Structure (SMILES),Cummulative food intake (% vehicle treated intake) At 12 h [4] [% vehicle treated intake],Cummulative food intake (% vehicle treated intake) At 24 h [4] [% vehicle treated intake],Cummulative food intake (% vehicle treated intake) At 48 h [4] [% vehicle treated intake]
>144,1860,15,127,"CC[C@H](C)[C@H](NC(=O)[C@@H]1CCCN1C(=O)CNC(=O)[C@](C)(Cc1ccccc1)NC(=O)[C@H](CC(N)=O)NC(=O)[C@H](CC(N)=O)NC(=O)[C@H](CO)NC(=O)[C@H](CO)NC(=O)[C@H](Cc1c[nH]cn1)NC(=O)[C@@H](NC(=O)[C@H](CC(C)C)NC(=O)[C@H](Cc1ccccc1)NC(=O)[C@H](CC(N)=O)NC(=O)[C@H](C)NC(=O)[C@H](CC(C)C)NC(=O)[C@H](CCCNC(=N)N)NC(=O)[C@H](CCC(N)=O)NC(=O)[C@@H](NC(=O)[C@H](C)NC(=O)[C@@H]1CSSC[C@H](NC(=O)[C@@H](N)CCCCNC(=O)CC[C@H](NC(=O)CC[C@H](NC(=O)CCCCCCCCCCCCCCCCC(=O)O)C(=O)O)C(=O)O)C(=O)N[C@@H](CC(N)=O)C(=O)N[C@@H]([C@@H](C)O)C(=O)N[C@@H](C)C(=O)N[C@@H]([C@@H](C)O)C(=O)N1)[C@@H](C)O)C(C)C)C(=O)N[C@@H](CC(C)C)C(=O)N1CCC[C@H]1C(=O)N1CCC[C@H]1C(=O)N[C@H](C(=O)N[C@@H](CCCNC(=N)N)C(=O)N[C@H](C(=O)NCC(=O)N[C@@H](CO)C(=O)N[C@@H](CC(N)=O)C(=O)N[C@H](C(=O)N[C@@H](Cc1ccc(O)cc1)C(N)=O)[C@@H](C)O)C(C)C)[C@@H](C)O [Peptide 24, K(γE-γE-C18diacid)[CNTATC]ATQRLANFLVHSSNN(αMePhe)GPILPPTRVGSNTY-amide] (H-K([γGlu-γGlu-C18 diacid])CNTATCATQRLANFLVHSSNN[αMeF]GPILPPTRVGSNTY-NH2; disulfide 2-7; N-terminus assumed)",18.7,19.4,40.6
>144,3330,15,228,"CC[C@H](C)[C@H](NC(=O)[C@@H]1CCCN1C(=O)CNC(=O)[C@H](Cc1ccccc1)NC(=O)[C@H](CC(N)=O)NC(=O)C(C)(C)NC(=O)[C@H](CO)NC(=O)[C@H](CO)NC(=O)[C@H](Cc1c[nH]cn1)NC(=O)[C@@H](NC(=O)[C@H](CC(C)C)NC(=O)[C@H](Cc1ccccc1)NC(=O)[C@H](CC(N)=O)NC(=O)[C@H](C)NC(=O)[C@H](CC(C)C)NC(=O)[C@H](CCCNC(=N)N)NC(=O)[C@H](CCC(N)=O)NC(=O)[C@@H](NC(=O)[C@H](C)NC(=O)[C@@H]1CSSC[C@H](NC(=O)[C@H](CCCCN)NC(=O)[C@@H](N)CCCCNC(=O)CC[C@H](NC(=O)CCCCCCCCCCCCCCCCC(=O)O)C(=O)O)C(=O)N[C@@H](CC(N)=O)C(=O)N[C@@H]([C@@H](C)O)C(=O)N[C@@H](C)C(=O)N[C@@H]([C@@H](C)O)C(=O)N1)[C@@H](C)O)C(C)C)C(=O)N[C@@H](CC(C)C)C(=O)N1CCC[C@H]1C(=O)N1CCC[C@H]1C(=O)N[C@H](C(=O)N[C@@H](Cc1c[nH]cn1)C(=O)N[C@H](C(=O)NCC(=O)N[C@@H](CO)C(=O)N[C@@H](CC(N)=O)C(=O)N[C@H](C(=O)N[C@@H](Cc1ccc(O)cc1)C(N)=O)[C@@H](C)O)C(C)C)[C@@H](C)O [Peptide 40, K(γE-C18diacid)K[CNTATC]ATQRLANFLVHSS(Aib)NFGPILPPTHVGSNTY-amide] (H-K([γGlu-C18 diacid])KCNTATCATQRLANFLVHSS[Aib]NFGPILPPTHVGSNTY-NH2; disulfide 3-8)",60.7,51.8,72.4
>144,6260,22,284,"CC[C@H](C)[C@H](NC(=O)[C@@H]1CCCN1C(=O)CNC(=O)[C@H](Cc1ccccc1)NC(=O)[C@H](CC(N)=O)NC(=O)C(C)(C)NC(=O)[C@H](CO)NC(=O)[C@H](CO)NC(=O)[C@H](Cc1c[nH]cn1)NC(=O)[C@H](CCCNC(=N)N)NC(=O)[C@H](CC(C)C)NC(=O)[C@H](Cc1ccccc1)NC(=O)[C@H](CC(N)=O)NC(=O)[C@H](C)NC(=O)[C@H](CC(C)C)NC(=O)[C@H](CCCNC(=N)N)NC(=O)[C@H](CCC(N)=O)NC(=O)[C@@H](NC(=O)[C@H](C)NC(=O)[C@@H]1CSSC[C@H](NC(=O)[C@@H](N)CCCCNC(=O)CC[C@H](NC(=O)CCCCCCCCCCCCCCCCC(=O)O)C(=O)O)C(=O)N[C@@H](CC(N)=O)C(=O)N[C@@H]([C@@H](C)O)C(=O)N[C@@H](C)C(=O)N[C@@H]([C@@H](C)O)C(=O)N1)[C@@H](C)O)C(=O)N[C@@H](CC(C)C)C(=O)N1CCC[C@H]1C(=O)N1CCC[C@H]1C(=O)N[C@H](C(=O)N[C@@H](CCC(=O)O)C(=O)N[C@H](C(=O)NCC(=O)N[C@@H](CO)C(=O)N[C@@H](CC(N)=O)C(=O)N[C@H](C(=O)N[C@@H](Cc1ccc(O)cc1)C(N)=O)[C@@H](C)O)C(C)C)[C@@H](C)O [Peptide 44, K(γE-C18diacid)[CNTATC]ATQRLANFLRHSS(Aib)NFGPILPPTEVGSNTY-amide] (H-K([γGlu-C18 diacid])CNTATCATQRLANFLRHSS[Aib]NFGPILPPTEVGSNTY-NH2; disulfide 2-7; N-terminus assumed)",33.5,39.2,60.7
>144,5270,42,126,"CC[C@H](C)[C@H](NC(=O)[C@@H]1CCCN1C(=O)CNC(=O)[C@H](Cc1ccccc1)NC(=O)[C@H](CC(N)=O)NC(=O)C(C)(C)NC(=O)[C@H](CO)NC(=O)[C@H](CO)NC(=O)[C@H](Cc1c[nH]cn1)NC(=O)[C@H](CCCNC(=N)N)NC(=O)[C@H](CC(C)C)NC(=O)[C@H](Cc1ccccc1)NC(=O)[C@H](CC(N)=O)NC(=O)[C@H](C)NC(=O)[C@H](CC(C)C)NC(=O)[C@H](CCCNC(=N)N)NC(=O)[C@H](CCC(N)=O)NC(=O)[C@@H](NC(=O)[C@H](C)NC(=O)[C@@H]1CSSC[C@H](NC(=O)[C@@H](N)CCCCNC(=O)CC[C@H](NC(=O)CCCCCCCCCCCCCCCCC(=O)O)C(=O)O)C(=O)N[C@@H](CC(N)=O)C(=O)N[C@@H]([C@@H](C)O)C(=O)N[C@@H](C)C(=O)N[C@@H]([C@@H](C)O)C(=O)N1)[C@@H](C)O)C(=O)N[C@@H](CC(C)C)C(=O)N1CCC[C@H]1C(=O)N1CCC[C@H]1C(=O)N[C@H](C(=O)N[C@@H](CC(N)=O)C(=O)N[C@H](C(=O)NCC(=O)N[C@@H](CO)C(=O)N[C@@H](CC(N)=O)C(=O)N[C@H](C(=O)N[C@@H](Cc1ccc(O)cc1)C(N)=O)[C@@H](C)O)C(C)C)[C@@H](C)O [Peptide 48, K(γE-C18diacid)[CNTATC]ATQRLANFLRHSS(Aib)NFGPILPPTNVGSNTY-amide] (H-K([γGlu-C18 diacid])CNTATCATQRLANFLRHSS[Aib]NFGPILPPTNVGSNTY-NH2; disulfide 2-7; N-terminus assumed)",27.5,32.6,57.1
